These results are taken from patent publication US20220088031A1, “METHODS AND COMPOSITIONS FOR TREATING RESISTANT AND RECURRENT FORMS OF CANCER” (Health Research, Inc., priority 2019, published 2022).

Structures are written as SMILES.

The subject of one assay is E006AA hT xenografts. As to the kind of experiment: Human PCa xenograft study. Format: in vivo, SCID mice. Particulars: 3 weeks. From the text: Human PCa xenograft study: SCID (C.B-Igh-1^b/IcrTac-Prkdc^[…]) mice (6 weeks old) were purchased from an in house colony maintained by Roswell Park Laboratory Animal Shared Resource. Animal protocols were approved by the Roswell Park Institutional Animal Care and Use Committee (IACUC protocol #1306M). E006AA hT cells (80% confluency) were harvested and live cells quantified. Harvested cells were washed and resuspended in serum-free DMEM/F-12 (1:1) mix. Four ×10^6 E006AA hT cells were mixed with Matrigel (1:1) and injected subcutaneously in the right and left flanks of each mouse. When xenograft tumors reached 5 mm in diameter (22 days post injection), mice were randomly divided into 6 groups of 4 mice. First group received 100 μl Neobee M5 oil (vehicle) and 100 μl normal saline each twice weekly. Second group received 100 μl Neobee M5 oil and DOC (6 mg/kg bw) twice weekly. Third group received 10058-F4 (20 mg/kg bw) and DOC (6 mg/kg bw) twice weekly. Fourth group received JSH-23 (3 mg/kg bw) and DOC (6 mg/kg bw) twice weekly. Fifth group received 10058-F4 (20 mg/kg bw) and normal saline twice weekly. Sixth group received JSH-23 (3 mg/kg bw) and normal saline twice weekly. All treatments were administered for 3 weeks. Mice were euthanized, tumors were excised and flash frozen in liquid nitrogen. The tissue lysates were used for caspase-3 activity and Western blotting of CC, cleaved PARP, and cleaved caspase-3 proteins.
(§1) Immunoblotting: Immunoblotting was performed as described previously. Protein lysates were prepared using a lysis in NP-40 buffer (50 mM Tris-HCl pH 7.4, 150 mM NaCl, 1 mM EDTA, 1 mM EGTA, 1% NP-40) supplemented with protease and phosphatase inhibitor cocktail. Protein content was quantified using a micro BCA protein estimation kit (Thermo Scientific, Waltham, Mass.; Cat #23235). Protein samples were resolved on 4-20% Criterion gels, transferred on nitrocellulose membranes (BioRad, Hercules, Calif.) and subjected to immunoblotting. Membranes were blocked in 5% fat free dry milk (Blotto, Santa Cruz, Dallas, Tex.; Cat #sc-2324) prepared in PBS-T (Tween-20) and incubated overnight in primary antibodies (1:1000 dilution) at 4° C. with continuous shaking. After washing with PBS-T, membranes were incubated in HRP conjugated anti-mouse or anti-rabbit secondary antibody at room temperature for 1 hr. After washing with PBS-T, proteins were detected using Clarity chemiluminescent reagent (BioRad, Hercules, Calif.; Cat #1705061) and X-Ray films (ASI, Fort Lauderdale, Fla.; Cat #XR1570). Membranes were stripped using stripping buffer and probed with HRP conjugated beta-actin antibody to ensure equal loading of proteins.
(§2) Caspase-3 (DEVDase) activity assay: PCa cell lysates prepared in NP40 lysis buffer were incubated with DEVD-AFC (caspase-3 substrate) at 37° C. for 90 min in caspase activity assay buffer (50 mM HEPES pH 7.4, 150 mM NaCl, 1% CHAPS, 1 mM EDTA, 1 mM DTT, 50% glycerol). Fluorescence intensity was detected using a Synergy microplate reader at excitation and emission wavelengths of 400 nm and 508 nm, respectively. Arbitrary fluorescence units were normalized with protein content of cell lysates and represented as fold change compared to control groups.

In a further assay the test system is RC-77 T/E cells. As to the kind of experiment: Cell death, DEVDase activity and CC expression in a second AA PCa cell line. The class given is cell-based, human. The following applies: both AA PCa cell lines; for CC expression / caspase-3 activity: DOC with or without inhibitor, 24 hrs; for cell death: not as effective as in CA PCa cells. On the procedure: as §1
Cell viability assay: PCa cells (5×10^4 cells/well) were seeded on 6-well cell culture plates and incubated with DOC (1-20 nM) for 24 hrs. Floating and attached cells were collected using trypsinization. Live and dead cells were counted under a light microscope using a trypan blue exclusion assay.
as §2

Where [1] appears, read: in combination with DOC (6 mg/kg bw) twice weekly.
[2] abbreviates: inhibitor alone, 10058-F4 20 mg/kg bw or JSH-23 3 mg/kg bw twice weekly.

Regarding `Cc1ccc(NCCCc2ccccc2)c(N)c1` [NF-κB inhibitor, JSH-23], in the assay on E006AA hT xenografts (setting [1]), the “CC expression in xenografts” value is listed as “further upregulated”, the “PARP cleavage in xenografts” value is on record as “PARP cleavage” and the “caspase-3 activation in xenografts” value was “caspase-3 activation”. Besides, the “CC expression in xenografts” value in the assay with E006AA hT xenografts (setting [2]) is “induced CC expression”. Moreover, in the assay with RC-77 T/E cells, the CC expression result is reported as “induced CC expression”, the caspase-3 activity result is “activated caspase-3 activity” and the cell death entry is reported as “enhanced cell death”.

With `CCc1ccc(/C=C2/SC(=S)NC2=O)cc1` [c-Myc inhibitor, 10058-F4], in the assay on E006AA hT xenografts (setting [1]), the “CC expression in xenografts” value was “further upregulated”, the “PARP cleavage in xenografts” value was “PARP cleavage” and the “caspase-3 activation in xenografts” value was “caspase-3 activation”. In addition, the “CC expression in xenografts” value in the assay on E006AA hT xenografts (setting [2]) was “induced CC expression”. Moreover, in the assay with RC-77 T/E cells, the CC expression result is recorded as “induced CC expression”, the caspase-3 activity result was “activated caspase-3 activity” and the cell death result is “enhanced cell death”.
